Experimental data as given in patent US12404241B2 (Celgene Corporation, priority 2018, dated 2025).
Structures can show the parent of a compound that is named as a salt.

Target: T1, AR (Homo sapiens, UniProt P10275)
T1 construct: endogenous in cells; host or cells: VCaP cells
T1 sequence (P10275 1-920): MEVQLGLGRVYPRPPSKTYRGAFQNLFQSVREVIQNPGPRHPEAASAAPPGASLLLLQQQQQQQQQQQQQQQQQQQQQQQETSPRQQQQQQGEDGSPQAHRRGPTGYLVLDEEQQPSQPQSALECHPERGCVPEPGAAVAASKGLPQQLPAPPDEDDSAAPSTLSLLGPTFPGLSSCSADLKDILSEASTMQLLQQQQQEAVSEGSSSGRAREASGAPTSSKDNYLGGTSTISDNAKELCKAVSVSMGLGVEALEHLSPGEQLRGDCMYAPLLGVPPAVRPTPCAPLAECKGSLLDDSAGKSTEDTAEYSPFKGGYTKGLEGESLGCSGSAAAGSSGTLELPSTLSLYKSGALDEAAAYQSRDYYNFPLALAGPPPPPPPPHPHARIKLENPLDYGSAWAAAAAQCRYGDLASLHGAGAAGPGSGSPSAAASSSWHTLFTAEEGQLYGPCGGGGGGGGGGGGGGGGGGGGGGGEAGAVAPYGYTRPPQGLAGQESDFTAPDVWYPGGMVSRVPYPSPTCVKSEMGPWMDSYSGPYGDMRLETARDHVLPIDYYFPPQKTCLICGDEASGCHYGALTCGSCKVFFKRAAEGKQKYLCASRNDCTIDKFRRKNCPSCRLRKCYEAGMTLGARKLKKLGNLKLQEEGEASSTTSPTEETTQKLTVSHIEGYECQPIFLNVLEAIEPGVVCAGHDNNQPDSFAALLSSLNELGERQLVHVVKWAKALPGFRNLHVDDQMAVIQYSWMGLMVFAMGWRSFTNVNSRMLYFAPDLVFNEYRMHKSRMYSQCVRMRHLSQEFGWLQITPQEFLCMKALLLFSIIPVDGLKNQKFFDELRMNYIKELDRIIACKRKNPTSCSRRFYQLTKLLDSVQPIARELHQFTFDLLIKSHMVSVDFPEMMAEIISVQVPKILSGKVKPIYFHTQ
Test: VCAP AR Degradation Assay
Assay type: cell-based
Conditions: for Y (AR degradation efficiency, % of DMSO control): class symbols *; for DC50: class symbols A-C, read-out: DC50
Outline: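 AR protein in lysates quantified by sandwich ELISA after 24 h exposure of VCaP cells at 37 °C to 10 concentrations (1:3 steps, 5 μM top, final). Four-parameter logistic fit of percent-of-DMSO levels gave DC50 (50% degradation), EC50 and minimal AR level Y.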

Row | SMILES | Y (AR degradation efficiency, % of DMSO control) | DC50 [nM]
1 | CC(C)c1cc(N2C(=S)N(c3ccc(C#N)c(C(F)(F)F)c3)C(=O)C23CCC3)cnc1OCCN1C[C@@H](C)N(CC(=O)Nc2cc(C#N)cc(NC3CCC(=O)NC3=O)c2)C[C@H]1C (stereo partly drawn) [Example 231, 2-((2R,5R)-4-(2-(5-(7-(4-cyano-3-(trifluoromethyl)phenyl)-8-oxo-6-thioxo-5,7-diazaspiro[3.4]octan-5-yl)-3-isopropylpyridin-2-yloxy)ethyl)-2,5-dimethylpiperazin-1-yl)-N-(3-cyano-5-(2,6-dioxopiperidin-3-ylamino)phenyl)acetamide] | * (0<Y<=25%) | 100 to 500
2 | CCc1cc(N2C(=S)N(c3cnc(C#N)c(C(F)(F)F)c3)C(=O)C2(C)C)ccc1OCCN1CCN(CC(=O)Nc2cccc(N[C@H]3CCC(=O)NC3=O)c2)[C@H](C)C1 [Example 137, 2-((R)-4-(2-(4-(3-(6-cyano-5-(trifluoromethyl)pyridin-3-yl)-5,5-dimethyl-4-oxo-2-thioxoimidazolidin-1-yl)-2-ethylphenoxy)ethyl)-2-methylpiperazin-1-yl)-N-(3-((S)-2,6-dioxopiperidin-3-ylamino)phenyl)acetamide] | * (0<Y<=25%) | < 100
3 | CCc1cc(N2C(=S)N(c3ccc(C#N)c(C(F)(F)F)c3)C(=O)C2(C)C)c(F)cc1OCCN1C[C@@H](C)N(CC(=O)Nc2cccc(NC3CCC(=O)NC3=O)c2)[C@@H](C)C1 (stereo partly drawn) [Example 247, 2-((2S,6R)-4-(2-(4-(3-(4-cyano-3-(trifluoromethyl)phenyl)-5,5-dimethyl-4-oxo-2-thioxoimidazolidin-1-yl)-2-ethyl-5-fluorophenoxy)ethyl)-2,6-dimethylpiperazin-1-yl)-N-(3-(2,6-dioxopiperidin-3-ylamino)phenyl)acetamide] | * (0<Y<=25%) | < 100
4 | CC1(C)C(=O)N(c2ccc(C#N)c(C(F)(F)F)c2)C(=S)N1c1ccc(OCCN2CCN(CC(=O)Nc3cccc(NC4CCC(=O)NC4=O)c3)CC2)c(C(F)(F)F)c1 (centres unmarked) [Example 12, hydrochloride] | *** (35%<Y<50%) | 100 to 500
5 | CCc1cc(N2C(=S)N(c3ccc(C#N)c(C(F)(F)F)c3)C(=O)C2(C)C)cc(C)c1OCCN1C[C@@H](C)N(CC(=O)Nc2cccc(NC3CCC(=O)NC3=O)c2)[C@@H](C)C1 (stereo partly drawn) [Example 249, 2-((2R,6S)-4-(2-(4-(3-(4-cyano-3-(trifluoromethyl)phenyl)-5,5-dimethyl-4-oxo-2-thioxoimidazolidin-1-yl)-2-ethyl-6-methylphenoxy)ethyl)-2,6-dimethylpiperazin-1-yl)-N-(3-(2,6-dioxopiperidin-3-ylamino)phenyl)acetamide] | *** (35%<Y<50%) | 100 to 500
6 | CCc1cc(N2C(=S)N(c3ccc(C#N)c(C(F)(F)F)c3)C(=O)C2(C)C)ccc1OCCN1CCN([C@@H](C)C(=O)Nc2cccc(NC3CCC(=O)NC3=O)c2)CC1 (stereo partly drawn) [Example 57, (2S)-2-(4-(2-(4-(3-(4-cyano-3-(trifluoromethyl)phenyl)-5,5-dimethyl-4-oxo-2-thioxoimidazolidin-1-yl)-2-ethylphenoxy)ethyl)piperazin-1-yl)-N-(3-(2,6-dioxopiperidin-3-ylamino)phenyl)propanamide] | * (0<Y<=25%) | < 100
7 | C[C@@H]1CN(CCOc2ccc(N3C(=S)N(c4cnc(C#N)c(C(F)(F)F)c4)C(=O)C3(C)C)cc2CCF)CCN1CC(=O)Nc1cccc(NC2CCC(=O)NC2=O)c1 (stereo partly drawn) [Example 166, 2-((R)-4-(2-(4-(3-(6-cyano-5-(trifluoromethyl)pyridin-3-yl)-5,5-dimethyl-4-oxo-2-thioxoimidazolidin-1-yl)-2-(2-fluoroethyl)phenoxy)ethyl)-2-methylpiperazin-1-yl)-N-(3-(2,6-dioxopiperidin-3-ylamino)phenyl)acetamide] | * (0<Y<=25%) | < 100
